Literature values, collected in patent US20080044356A1, “Assemblies of Oligomeric Amyloid Beta Protein and Uses Thereof” (Regents of the University of Minnesota, priority 2004, published 2008).
Like-named read-outs stand apart in the source and are kept apart here.

What was measured:
[1] = tested on: rats
[2] = tested on: rats; remark: listed apart in the source
[3] = tested on: Alzheimer's disease (AD) patients
[4] = congenitally hypothyroid rats with replacement treatment
[5] = animals treated in utero (congenital hypothyroidism), versus controls

**Q.** Which “motivation for food in the PR task” value [1, 4] does the source give for `N[C@@H](Cc1cc(I)c(Oc2cc(I)c(O)c(I)c2)c(I)c1)C(=O)O` [thyroxin, thyroxine] here?
**A.** performed equally well

**Q.** What about the “learning to criterion and error rates in the ALCR task” value [2, 4] of the same compound?
**A.** normal learning to criterion and error rates

**Q.** With `CN1[C@@H]2CC[C@H]1C[C@@H](OC(=O)C(CO)c1ccccc1)C2` (stereo partly shown) [atropine] as the compound, how does the switching errors ([2]; 1.0 mg/kg IP) read?
**A.** increases switching errors significantly

**Q.** And the “ALCR Cognitive Effect” value ([2]; route IP)?
**A.** Increased errors

**Q.** And the “ALCR Running Response Rate” value ([2]; route IP)?
**A.** No effect

**Q.** And the “ALCR Running Response Rate” value ([2]; route IP, 1 mg/kg)?
**A.** Reduced

**Q.** Which results are given for `Cn1cc[nH]c1=S` [methimzole, methimazole]?
**A.** motivation for food in the PR task [1, 5]: not different from that of controls; Direct test of Motivation ([1]; route PO, FOA, PR assessments): No effect; learning to criterion in the ALCR task [2, 5]: significantly slower learning to criterion; ALCR Cognitive Effect ([2]; route PO): Slow learning; ALCR Running Response Rate ([2]; route PO): No effect

**Q.** With “AN-1792: beta amyloid peptide 1-42, used for active immunization” as the compound, how does the “adverse reaction to active immunization” value ([3]; human, in vivo) read?
**A.** risk of encephalitis

**Q.** And the cognitive function ([3]; immunization, subset of AD patients)?
**A.** encouraging preliminary reports

**Q.** With `CC(C)Cc1ccc(C(C)C(=O)O)cc1` (stereo not shown) [ibuprofen] as the compound, how does the “effect on Aβ-induced ALCR performance decrements” value ([2]; after IH injection of pre-aggregated Aβ) read?
**A.** mitigated these effects

**Q.** And the “ALCR Cognitive Effect” value ([2]; route PO)?
**A.** Normalized errors

**Q.** What about the “ALCR Running Response Rate” value ([2]; route PO) of the same compound?
**A.** No effect
